Test results: publication PMC7570497, “Design, Synthesis and Functional Analysis of Cyclic Opioid Peptides with Dmt-Tic Pharmacophore” (Molecules, 2020)
Bridge positions count the residues as written; N and C are the ends. Square brackets hold non-standard residues; d marks the D form. Peptide text beside a SMILES is read from it. Phe(2,4-F2) = N[C@@H](Cc1ccc(F)cc1F)C(=O)O; d2Nal = N[C@H](Cc1ccc2ccccc2c1)C(=O)O; Dmt = Cc1cc(O)cc(C)c1C[C@H](N)C(=O)O; Tic = O=C(O)[C@@H]1Cc2ccccc2CN1; dDap = NC[C@@H](N)C(=O)O

Key:
human KOR = molecular target: T1, human KOR (Homo sapiens, UniProt P41145); assay: Calcium mobilization assay, agonist mode, KOR; format: cell-based; settings: for KOR pEC50 (CL95%) / KOR α ± SEM (efficacy, intrinsic activity): CHO cells co-expressing human KOR and Gαqi5, inactive = inactive up to 10 μM, n ≥ 5; for KOR pEC50 (CL95%): Fluo-4 AM, reference agonist dynorphin A, mean ± SEM; for KOR α ± SEM (efficacy, intrinsic activity): ratio of peptide Emax to Emax of dynorphin A
T1 construct: expressed in transfected cells; host or cells: CHO cells (gift from Prof. Girolamo Calo, Ferrara University)
T1 sequence (P41145 whole entry): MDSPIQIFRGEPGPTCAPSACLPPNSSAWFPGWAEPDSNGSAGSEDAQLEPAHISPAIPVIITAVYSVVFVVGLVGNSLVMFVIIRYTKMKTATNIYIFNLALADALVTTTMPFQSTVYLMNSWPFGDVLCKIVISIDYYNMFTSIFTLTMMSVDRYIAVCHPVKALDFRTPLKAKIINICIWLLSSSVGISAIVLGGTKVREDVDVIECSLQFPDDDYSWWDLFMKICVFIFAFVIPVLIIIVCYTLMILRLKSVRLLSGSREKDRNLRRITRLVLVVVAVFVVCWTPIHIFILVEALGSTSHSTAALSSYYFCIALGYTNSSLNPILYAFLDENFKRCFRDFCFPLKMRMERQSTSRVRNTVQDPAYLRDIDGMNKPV
Experimental: (§1) Calcium mobilization assay was performed as reported previously. CHO cells stably co-expressing human MOR or KOR and the C-terminally modified Gαqi5 and CHO cells co-expressing DOR and the GαqG66Di5 protein were used for the tests. Briefly, cells incubated for 24 h in 96-well black, clear-bottom plates were loaded with medium supplemented with probenecid (2.5 mmol/L), calcium-sensitive fluorescent dye Fluo-4 AM (3 μmol/L) and pluronic acid (0.01%) and kept at 37 °C for 30 min. Following aspiration of the loading solution and a washing step, serial dilutions of peptide stock solutions were added. Cells without peptides were treated as the control. […] Ligand efficacy was expressed as intrinsic activity (α) calculated as a ratio of the peptide Emax to Emax of the standard agonist.

DOR [1] = molecular target: T2, DOR (Homo sapiens, UniProt P41143); assay: Calcium mobilization assay, agonist mode, DOR; format: cell-based; set-up: expressed in transfected cells; host or cells: CHO cells (gift from Prof. Girolamo Calo, Ferrara University); settings: CHO cells co-expressing DOR and GαqG66Di5, inactive = inactive up to 10 μM, n ≥ 5; for DOR pEC50 (CL95%): Fluo-4 AM, reference agonist DPDPE, mean ± SEM; for DOR α ± SEM (efficacy, intrinsic activity): ratio of peptide Emax to Emax of DPDPE
T2 sequence (P41143 whole entry): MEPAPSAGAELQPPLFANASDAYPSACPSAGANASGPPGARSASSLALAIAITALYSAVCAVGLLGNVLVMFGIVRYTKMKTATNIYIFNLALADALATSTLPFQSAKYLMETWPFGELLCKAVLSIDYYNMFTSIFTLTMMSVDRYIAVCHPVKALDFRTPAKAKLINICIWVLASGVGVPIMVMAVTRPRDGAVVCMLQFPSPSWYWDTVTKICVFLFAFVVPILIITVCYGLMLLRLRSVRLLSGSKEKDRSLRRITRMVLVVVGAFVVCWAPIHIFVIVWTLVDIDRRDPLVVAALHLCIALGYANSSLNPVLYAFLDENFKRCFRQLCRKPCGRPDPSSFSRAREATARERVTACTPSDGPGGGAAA
Experimental: as §1

human MOR = molecular target: T3, human MOR (Homo sapiens, UniProt P35372); assay: Calcium mobilization assay, agonist mode, MOR; format: cell-based; settings: for MOR α ± SEM (efficacy, intrinsic activity): ratio of peptide Emax to Emax of dermorphin
T3 construct: expressed in transfected cells; host or cells: CHO cells (gift from Prof. Girolamo Calo, Ferrara University)
T3 sequence (P35372 whole entry): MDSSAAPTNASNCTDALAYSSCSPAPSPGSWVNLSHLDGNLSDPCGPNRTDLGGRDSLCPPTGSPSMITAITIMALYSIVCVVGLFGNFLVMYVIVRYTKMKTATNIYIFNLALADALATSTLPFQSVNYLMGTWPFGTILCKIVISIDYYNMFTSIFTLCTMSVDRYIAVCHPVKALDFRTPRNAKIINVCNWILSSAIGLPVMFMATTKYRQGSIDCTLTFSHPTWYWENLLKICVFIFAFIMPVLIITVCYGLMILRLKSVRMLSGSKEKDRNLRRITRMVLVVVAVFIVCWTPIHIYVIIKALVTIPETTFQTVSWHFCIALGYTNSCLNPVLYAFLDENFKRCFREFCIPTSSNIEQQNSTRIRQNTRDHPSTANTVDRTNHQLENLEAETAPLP

[2] = LC-MS elution order in reverse-phase chromatography to estimate lipophilicity; format: physicochemical; settings: LC-MS (XIC); Aeris Peptide XB-C18 and Kinetex Biphenyl columns, identical order on both; gradient 5–80% acetonitrile in water in 10 min, 0.1% HCOOH
Source text: The lipophilicity of compounds is often a useful characteristic allowing one to predict or rationalize their interactions with a given receptor [40]. Here, the liquid chromatography–mass spectrometry (LC-MS) procedure was applied to study the elution order of analogs in the reverse-phase chromatography to estimate their lipophilicity. The mixture of peptides 1–6 was run in the same experimental conditions on two types of columns, an Aeris Peptide C18 column and a novel biphenyl stationary phase HPLC column. The biphenyl column can be complementary to a C18 column, as it can engage in π–π interactions with the eluted compound [41]. As expected, peptides were more retained on the biphenyl column, due to the π stacking interactions of their aromatic rings with the solid support.
Figure 1 LC-MS chromatograms (extracted ion currents (XIC)) for peptides 1–6. Panel (A): Aeris Peptide XB-C18 column. Panel (B): Kinetex Biphenyl column. […]
Protected amino acids were purchased from Bachem AG (Bubendorf, Switzerland). p-Methylbenzhydrylamine (MBHA) resin was obtained from Novabiochem (San Diego, CA, USA). Semi-preparative and analytical RP-HPLC was performed using Waters Breeze instrument (Milford, MA, USA) with the dual absorbance detector (Waters 2487) on a Vydac C18 column (22 × 250 mm, 10 μm) and Vydac C18 column (4.6 × 250 mm, 5 μm), respectively. […]

[3] = Enzymatic stability in rat brain homogenate; format: in vitro ADME; settings: rat brain homogenate 10 mg protein/mL in Tris.HCl 50 mM pH 7.4; 100 μL homogenate + 100 μL peptide (0.5 mM); 37 °C; 60 min; HPLC area %; three independent experiments; read-out: Enzymatic Stability Area [%]: amount of peptide remained after 60 min incubation with rat brain homogenate
Experimental: The metabolic stability of analogs was assessed in the presence of the rat brain homogenate. All new cyclopeptides remained almost intact after 60 min incubation with the homogenate (Table 1).
Enzymatic degradation studies of the analogs were carried out using rat brain homogenate (10 mg protein/mL). To prepare, the homogenate rat brains were isolated, pooled and homogenized in a Polytron with 20 volumes of Tris.HCl (50 mM, pH 7.4), and the homogenate was then stored at −80°C until use. Aliquots of the homogenate (100 μL) were incubated with 100 μL of peptide (0.5 mM) over 0, 7.5, 15, 22.5, 30, and 60 min at 37 °C, in a final volume of 200 μL. The reaction was stopped at the required time by placing the tube on ice and acidifying the content with 20 μL of HCl (1 M). The aliquots were centrifuged at 20,000× g for 10 min at 4 °C. The supernatants were filtered over Millex-GV syringe filters (Millipore, Billerica, MA, USA) and analyzed by HPLC on a Vydac C18 column (4.6 mm × 250 mm, 5 μm,), using the solvent system of 0.1% TFA in water (A) and 80% acetonitrile in water containing 0.1% TFA (B) and a linear gradient of 0–100% B over 25 min. Three independent experiments for each assay were carried out. The amount of remaining peptide (area %) was calculated.

DOR [4] = molecular target: T2, DOR; assay: Calcium mobilization assay, antagonism of DPDPE at DOR
[5] = CHO cells co-expressing human MOR and Gαqi5, inactive = inactive up to 10 μM, n ≥ 5

With Cc1cc(O)cc(C)c1C[C@H](N)C(=O)N1Cc2ccccc2C[C@H]1C(=O)N[C@@H]1CCCCNC(=O)C[C@@H](C(N)=O)NC(=O)[C@H](Cc2ccccc2)NC1=O [compound 5, Dmt-Tic-c[D-Lys-Phe-Asp]NH2] (H-[Dmt][Tic][dK]FD-NH2; lactam 3-5) the “KOR pEC50 (CL95%)” value (human KOR) was “inactive”, the “KOR α ± SEM (efficacy, intrinsic activity)” value (from here on “KOR α ± SEM”) (human KOR) was “inactive” and the “DOR pEC50 (CL95%)” value (DOR [1]) was “inactive”. For the same molecule, the “DOR α ± SEM (efficacy, intrinsic activity)” value (from here on “DOR α ± SEM”) (DOR [1]) was “inactive”, the EC50 (human MOR) was 813 nM and the “MOR α ± SEM (efficacy, intrinsic activity)” value (from here on “MOR α ± SEM”) (human MOR; [5]) was 0.3 ± 0.03. For the same molecule, the “Elution order in reverse-phase chromatography (lipophilicity)” value [2] was “least lipophilic”, the remaining at 1 h, 0.25 mM [3] was 96.76 ± 0.91% and the Kb (DOR [4]) was 0.525 nM.
In the case of Cc1cc(O)cc(C)c1C[C@H](N)C(=O)N1Cc2ccccc2C[C@H]1C(=O)N[C@@H]1CNC(=O)C[C@@H](C(N)=O)NC(=O)[C@H](Cc2ccccc2)NC(=O)[C@H](Cc2ccccc2)NC1=O [compound 4, Dmt-Tic-c[D-Dap-Phe-Phe-Asp]NH2] (H-[Dmt][Tic][dDap]FFD-NH2; lactam 3-6), the “KOR pEC50 (CL95%)” value (human KOR) is reported as “inactive”, the “KOR α ± SEM” value (human KOR) is reported as “inactive” and the “DOR pEC50 (CL95%)” value (DOR [1]) is reported as “inactive”. For the same molecule, the “DOR α ± SEM” value (DOR [1]) was “inactive”, the “MOR pEC50 (CL95%)” value (human MOR; CHO cells co-expressing human MOR and Gαqi5, Fluo-4 AM, reference agonist dermorphin, inactive = inactive up to 10 μM, mean ± SEM, n ≥ 5) was “inactive” and the “MOR α ± SEM” value (human MOR; [5]) was “inactive”. For the same molecule, the remaining at 1 h, 0.25 mM [3] was 96.21 ± 0.89% and the Kb (DOR [4]) was 2.45 nM.
In the case of Cc1cc(O)cc(C)c1C[C@H](NC(=O)[C@@H]1Cc2ccccc2CN1C(=O)[C@@H]1CC(=O)NCCCC[C@@H](NC(=O)[C@@H]2Cc3ccccc3CN2C(=O)[C@@H](N)Cc2c(C)cc(O)cc2C)C(=O)N[C@@H](Cc2ccccc2)C(=O)N1)C(N)=O [compound 6, Dmt-Tic-c[D-Lys-Phe-Asp]-Tic-Dmt-NH2] (H-[Dmt][Tic][dK]FD[Tic][Dmt]-NH2; lactam 3-5), the “KOR pEC50 (CL95%)” value (human KOR) is reported as “inactive”, the “KOR α ± SEM” value (human KOR) is reported as “inactive” and the “DOR pEC50 (CL95%)” value (DOR [1]) is reported as “inactive”. The “DOR α ± SEM” value (DOR [1]) was “inactive”, the EC50 (human MOR) was 331 nM and the “MOR α ± SEM” value (human MOR; [5]) was 0.17 ± 0.20. It also gave a remaining at 1 h, 0.25 mM [3] of 97.6 ± 1.2% and a Kb (DOR [4]) of 1.1 nM.
In the case of Cc1cc(O)cc(C)c1C[C@H](N)C(=O)N1Cc2ccccc2C[C@H]1C(=O)N[C@@H]1CCCCNC(=O)C[C@@H](C(N)=O)NC(=O)[C@H](Cc2ccccc2)NC(=O)[C@H](Cc2ccccc2)NC1=O [compound 1, Dmt-Tic-c[D-Lys-Phe-Phe-Asp]NH2] (H-[Dmt][Tic][dK]FFD-NH2; lactam 3-6), the “KOR α ± SEM” value (human KOR) is reported as 0.20 ± 0.06, the EC50 (human KOR; read-out: KOR pEC50 (CL95%) (converted)) is reported as 490 nM and the “DOR pEC50 (CL95%)” value (DOR [1]) is reported as “inactive”. The “DOR α ± SEM” value (DOR [1]) was “inactive”, the EC50 (human MOR) was 661 nM and the “MOR α ± SEM” value (human MOR; [5]) was 0.15 ± 0.02. For the same molecule, the remaining at 1 h, 0.25 mM [3] was 97.88 ± 0.83% and the Kb (DOR [4]) was 42.7 nM.
With CC[C@H](C)[C@H](NC(=O)[C@H](CCCNC(=N)N)NC(=O)[C@H](CCCNC(=N)N)NC(=O)[C@H](CC(C)C)NC(=O)[C@H](Cc1ccccc1)NC(=O)CNC(=O)CNC(=O)[C@@H](N)Cc1ccc(O)cc1)C(=O)N[C@@H](CCCNC(=N)N)C(=O)N1CCC[C@H]1C(=O)N[C@@H](CCCCN)C(=O)N[C@@H](CC(C)C)C(=O)N[C@@H](CCCCN)C(=O)N[C@@H](Cc1c[nH]c2ccccc12)C(=O)N[C@@H](CC(=O)O)C(=O)N[C@@H](CC(N)=O)C(=O)N[C@@H](CCC(N)=O)C(=O)O [dynorphin A, reference compound] the “DOR α ± SEM” value (DOR [1]) was 0.99 ± 0.04.
Cc1cc(O)cc(C)c1C[C@H](N)C(=O)N1Cc2ccccc2C[C@H]1C(=O)N[C@@H]1CCCCNC(=O)C[C@@H](C(N)=O)NC(=O)[C@H](Cc2ccc(F)cc2F)NC(=O)[C@H](Cc2ccccc2)NC1=O [compound 3, Dmt-Tic-c[D-Lys-Phe-2,4F2-Phe-Asp]NH2] (H-[Dmt][Tic][dK]F[Phe(2,4-F2)]D-NH2; lactam 3-6) gave a remaining at 1 h, 0.25 mM [3] of 95.19 ± 0.86%.
In the case of Cc1cc(O)cc(C)c1C[C@H](N)C(=O)N1Cc2ccccc2C[C@H]1C(=O)N[C@@H]1CCCCNC(=O)C[C@@H](C(N)=O)NC(=O)[C@@H](Cc2ccc3ccccc3c2)NC(=O)[C@H](Cc2ccccc2)NC1=O [compound 2, Dmt-Tic-c[D-Lys-Phe-D-2Nal-Asp]NH2] (H-[Dmt][Tic][dK]F[d2Nal]D-NH2; lactam 3-6), the “KOR pEC50 (CL95%)” value (human KOR) is reported as “inactive”, the “KOR α ± SEM” value (human KOR) is reported as “inactive” and the “DOR pEC50 (CL95%)” value (DOR [1]) is reported as “inactive”. The “DOR α ± SEM” value (DOR [1]) was “inactive”, the EC50 (human MOR) was 617 nM and the “MOR α ± SEM” value (human MOR; [5]) was 0.37 ± 0.05. The remaining at 1 h, 0.25 mM [3] was 98.17 ± 0.23% and the Kb (DOR [4]) was 28.2 nM.
For C[C@@H](NC(=O)[C@@H](N)Cc1ccc(O)cc1)C(=O)N[C@@H](Cc1ccccc1)C(=O)NCC(=O)N[C@@H](Cc1ccc(O)cc1)C(=O)N1CCC[C@H]1C(=O)N[C@@H](CO)C(N)=O [dermorphin, reference compound], the “KOR pEC50 (CL95%)” value (human KOR) was “inactive”, the “KOR α ± SEM” value (human KOR) was “inactive” and the “DOR pEC50 (CL95%)” value (DOR [1]) was “inactive”. The “DOR α ± SEM” value (DOR [1]) was “inactive” and the “MOR α ± SEM” value (human MOR; [5]) was 1.00.
For CC1(C)SSC(C)(C)[C@@H](NC(=O)[C@@H](N)Cc2ccc(O)cc2)C(=O)NCC(=O)N[C@@H](Cc2ccccc2)C(=O)N[C@H]1C(=O)O [DPDPE, reference compound], the “KOR pEC50 (CL95%)” value (human KOR) was “inactive” and the “KOR α ± SEM” value (human KOR) was “inactive”.
